In ChEMBL document CHEMBL1138586 (Bioorg Med Chem Lett, 2009):

system: not listed separately; test: Clearance in rat; type: ADME, organism-based; conditions: in vivo

Row | clearance | SMILES
1 | 74.8 mL/min/kg | C#Cc1ccc(NC(=O)c2ccc(C(=N)N(C)C)cc2)c(C(=O)Nc2ccc(Cl)cn2)c1

system: not listed separately; test: Half life in rat; type: ADME, organism-based; conditions: in vivo

Row | half-life | SMILES
2 | 504 min | C#Cc1ccc(NC(=O)c2ccc(C(=N)N(C)C)cc2)c(C(=O)Nc2ccc(Cl)cn2)c1

target: Coagulation factor X (Homo sapiens, UniProt P00742); test: Inhibition of Factor 10a; conditions: not given
Sequence (P00742 41-179 limits assumed): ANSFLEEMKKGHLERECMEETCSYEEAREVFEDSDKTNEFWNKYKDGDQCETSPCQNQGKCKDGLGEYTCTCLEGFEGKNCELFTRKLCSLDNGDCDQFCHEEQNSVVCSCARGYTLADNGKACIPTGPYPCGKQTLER
Sequence (P00742 235-488 limits assumed): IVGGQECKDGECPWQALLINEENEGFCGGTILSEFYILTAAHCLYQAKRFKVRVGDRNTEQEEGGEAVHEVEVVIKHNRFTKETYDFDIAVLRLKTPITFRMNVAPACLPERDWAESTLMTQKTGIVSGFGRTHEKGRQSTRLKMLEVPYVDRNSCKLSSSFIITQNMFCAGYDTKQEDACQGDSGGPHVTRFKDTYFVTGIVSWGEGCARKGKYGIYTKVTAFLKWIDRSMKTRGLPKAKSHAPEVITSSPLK

Row | IC50 | SMILES
3 | 0.9 nM | COc1ccc(NC(=O)c2ccc(C(=N)N(C)C)cc2N2CCC(C(=O)O)CC2)c(C(=O)Nc2ccc(Cl)cn2)c1
4 | 2 nM | COc1ccc(NC(=O)c2ccc(C(=N)N(C)C)cc2N2CCCCC2)c(C(=O)Nc2ccc(Cl)cn2)c1
5 | 6 nM | CN(C)C(=N)c1ccc(C(=O)Nc2ccc(OCC(=O)O)cc2C(=O)Nc2ccc(Cl)cn2)cc1
6 | 2 nM | N=C(c1ccc(C(=O)Nc2ccc(Cl)cc2C(=O)Nc2ccc(Cl)cn2)cc1)N1CCC(C(=O)O)CC1
7 | 1 nM | CN(C)C(=N)c1ccc(C(=O)Nc2ccc(Cl)cc2C(=O)Nc2ccc(Cl)cn2)c(N2CCCCCC2)c1
8 | 0.6 nM | CCOc1cc(Cl)cc(C(=O)Nc2ccc(Cl)cn2)c1NC(=O)c1ccc(C(=N)N(C)C)cc1
9 | 1.2 nM | COCCN(C)c1cc(Cl)cc(C(=O)Nc2ccc(Cl)cn2)c1NC(=O)c1ccc(C(=N)N(C)C)cc1
10 | 2 nM | CN(C)C(=N)c1ccc(C(=O)Nc2cc(Cl)ccc2C(=O)Nc2ccc(Cl)cn2)cc1
11 | 1.3 nM | N=C(c1ccc(C(=O)Nc2ccc(Cl)cc2C(=O)Nc2ccc(Cl)cn2)cc1)N1CCCCC1
12 | 1.5 nM | CN1CCN=C1c1ccc(C(=O)Nc2ccc(Cl)cc2C(=O)Nc2ccc(Cl)cn2)cc1
13 | 17 nM | CN(C)C(=N)c1ccc(C(=O)Nc2ccc(OC(F)(F)F)cc2C(=O)Nc2ccc(Cl)cn2)cc1
14 | 0.7 nM | Cc1ccc(NC(=O)c2ccc(C(=N)N(C)C)cc2)c(C(=O)Nc2ccc(Cl)cn2)c1
15 | 10 nM | CN(C)C(=N)c1ccc(C(=O)Nc2ccc(OCC(F)(F)F)cc2C(=O)Nc2ccc(Cl)cn2)cc1
16 | 1.3 nM | CN(C)C(=N)c1ccc(C(=O)Nc2ccc(C(F)(F)F)cc2C(=O)Nc2ccc(Cl)cn2)cc1
17 | 0.5 nM | COCCN(C)c1cc(C(=N)N(C)C)ccc1C(=O)Nc1ccc(Cl)cc1C(=O)Nc1ccc(Cl)cn1
18 | 0.9 nM | CCN(C)C(=N)c1ccc(C(=O)Nc2ccc(Cl)cc2C(=O)Nc2ccc(Cl)cn2)cc1
19 | 1.2 nM | CN(C)C(=N)c1ccc(C(=O)Nc2ccc(C#N)cc2C(=O)Nc2ccc(Cl)cn2)cc1

Second part, the compound before the results:

Row | SMILES | IC50
20 | CN(C)C(=N)c1ccc(C(=O)Nc2ccc(Cl)cc2C(=O)Nc2ccc(Cl)cn2)c(N2CCCCC2)c1 | < 0.5 nM
21 | CN(C)C(=N)c1ccc(C(=O)Nc2ccc(Cl)cc2C(=O)Nc2ccc(Cl)cn2)c(N2CCC(C(=O)O)CC2)c1 | 0.7 nM
22 | Cc1ccc(NC(=O)c2cc(Cl)ccc2NC(=O)c2ccc(C(=N)N(C)C)cc2)nc1 | 1.1 nM
23 | CN(C)C(=N)c1ccc(C(=O)Nc2ccc(Cl)cc2C(=O)Nc2ccc(Cl)nc2)cc1 | 3 nM
24 | CN(C)C(=N)c1ccc(C(=O)Nc2ccc(Cl)cc2C(=O)Nc2ccc(Cl)cc2)cc1 | 0.7 nM
25 | COc1cc(C(=O)Nc2ccc(Cl)cc2C(=O)Nc2ccc(Cl)cn2)ccc1C(=N)N(C)C | 7 nM
26 | CN(C)C(=N)c1ccc(C(=O)Nc2ccc(Cl)cc2C(=O)Nc2ccc(Cl)cn2)c(N2CCCC2)c1 | 2 nM
27 | C#Cc1ccc(NC(=O)c2cc(Cl)ccc2NC(=O)c2ccc(C(=N)N(C)C)cc2)cc1 | 0.9 nM
28 | CN(C)C(=N)c1ccc(C(=O)Nc2ccc(Cl)cc2C(=O)Nc2ccc(Cl)s2)cc1 | 6 nM
29 | CN(C)C(=N)c1ccc(C(=O)Nc2ccc(Cl)cc2C(=O)Nc2ccc(Cl)cn2)cc1F | 1.1 nM
30 | CN(C)C(=N)c1ccc(C(=O)Nc2c(Cl)cccc2C(=O)Nc2ccc(Cl)cn2)cc1 | 21 nM
31 | CN(C)C(=N)c1ccc(C(=O)Nc2ccc(Cl)cc2C(=O)Nc2ccc(Cl)cn2)c(N2CCOCC2)c1 | 0.7 nM
32 | CCSc1ccc(NC(=O)c2ccc(C(=N)N(C)C)cc2)c(C(=O)Nc2ccc(Cl)cn2)c1 | 1.3 nM
33 | CN(C)C(=N)c1ccc(C(=O)Nc2ccc(S(C)(=O)=O)cc2C(=O)Nc2ccc(Cl)cn2)cc1 | 1.5 nM
34 | CN(C)C(=N)c1ccc(C(=O)Nc2ccsc2C(=O)Nc2ccc(Cl)cn2)cc1 | 2 nM
35 | COc1cc(C(=N)N(C)C)ccc1C(=O)Nc1ccc(Cl)cc1C(=O)Nc1ccc(Cl)cn1 | 0.5 nM
36 | COCCOc1cc(C(=N)N(C)C)ccc1C(=O)Nc1ccc(Cl)cc1C(=O)Nc1ccc(Cl)cn1 | 1.2 nM
37 | CCN(C)c1cc(Cl)cc(C(=O)Nc2ccc(Cl)cn2)c1NC(=O)c1ccc(C(=N)N(C)C)cc1 | 0.5 nM

Row | SMILES | IC50
38 | CN(C)C(=N)c1ccc(C(=O)Nc2ccc(Cl)cc2C(=O)Nc2ccc(F)cn2)cc1 | 3 nM
39 | CN(C)CCOc1cc(C(=N)N(C)C)ccc1C(=O)Nc1ccc(Cl)cc1C(=O)Nc1ccc(Cl)cn1 | < 0.5 nM
40 | CN(C)C(=N)c1ccc(C(=O)Nc2c(C(=O)Nc3ccc(Cl)cn3)cc(Cl)cc2N2CCCCC2)cc1 | 0.9 nM
41 | CN(C)C(=N)c1ccc(C(=O)Nc2ccc(Cl)cc2C(=O)Nc2ccc(Cl)cn2)c(N(C)C)c1 | 3 nM
42 | N=C(c1ccc(C(=O)Nc2ccc(Cl)cc2C(=O)Nc2ccc(Cl)cn2)cc1)N1CCCC1 | 2 nM
43 | CN(C)C(=N)c1ccc(C(=O)Nc2ccc(Cl)cc2C(=O)Nc2ccc(Cl)cn2)c(N2CCC2)c1 | 0.4 nM
44 | CN(C)C(=N)c1csc(C(=O)Nc2ccc(Cl)cc2C(=O)Nc2ccc(Cl)cn2)c1 | 1 nM
45 | CCN1CCN=C1c1ccc(C(=O)Nc2ccc(Cl)cc2C(=O)Nc2ccc(Cl)cn2)cc1 | 6 nM
46 | CC(C)Oc1cc(Cl)cc(C(=O)Nc2ccc(Cl)cn2)c1NC(=O)c1ccc(C(=N)N(C)C)cc1 | 0.5 nM
47 | CCc1ccc(NC(=O)c2ccc(C(=N)N(C)C)cc2)c(C(=O)Nc2ccc(Cl)cn2)c1 | 1 nM
48 | C#Cc1ccc(NC(=O)c2ccc(C(=N)N(C)C)cc2)c(C(=O)Nc2ccc(Cl)cn2)c1 | < 0.5 nM
49 | CN(C)C(=N)c1ccc(C(=O)Nc2ccc(F)cc2C(=O)Nc2ccc(Cl)cn2)cc1 | 1.4 nM
50 | CN(C)C(=N)c1ccc(C(=O)Nc2c(C(=O)Nc3ccc(Cl)cn3)cc(Cl)cc2N(C)C)cc1 | 0.5 nM
51 | N=C(c1ccc(C(=O)Nc2ccc(Cl)cc2C(=O)Nc2ccc(Cl)cn2)cc1)N1CCOCC1 | 2 nM
52 | CN(C)C(=N)c1ccc(C(=O)Nc2ccc(Cl)cc2C(=O)Nc2ccc(Cl)cn2)cn1 | 3 nM
53 | CN(C)C(=N)c1ccc(C(=O)Nc2c(C(=O)Nc3ccc(Cl)cn3)cc(Cl)cc2N2CCOCC2)cc1 | 1.3 nM
54 | COc1cc(Cl)cc(C(=O)Nc2ccc(Cl)cn2)c1NC(=O)c1ccc(C(=N)N(C)C)cc1 | 0.6 nM
55 | N=C(c1ccc(C(=O)Nc2ccc(Cl)cc2C(=O)Nc2ccc(Cl)cn2)cc1)N1CCC1 | 1.2 nM

system: not listed separately; test: Oral bioavailability in rat; type: ADME, organism-based; conditions: in vivo

Row | bioavailability | SMILES
56 | < 5% | COc1ccc(NC(=O)c2ccc(C(=N)N(C)C)cc2N2CCC(C(=O)O)CC2)c(C(=O)Nc2ccc(Cl)cn2)c1
57 | < 5% | CN(C)C(=N)c1ccc(C(=O)Nc2ccc(OCC(=O)O)cc2C(=O)Nc2ccc(Cl)cn2)cc1
58 | 8.1% | COCCN(C)c1cc(Cl)cc(C(=O)Nc2ccc(Cl)cn2)c1NC(=O)c1ccc(C(=N)N(C)C)cc1

Continued, compound first:

Row | SMILES | bioavailability
59 | CN(C)C(=N)c1ccc(C(=O)Nc2ccc(Cl)cc2C(=O)Nc2ccc(Cl)cn2)c(N2CCCCC2)c1 | 21.3%
60 | CN(C)C(=N)c1ccc(C(=O)Nc2ccc(Cl)cc2C(=O)Nc2ccc(Cl)cn2)c(N2CCCC2)c1 | 6.9%
61 | C#Cc1ccc(NC(=O)c2ccc(C(=N)N(C)C)cc2)c(C(=O)Nc2ccc(Cl)cn2)c1 | 27.9%
62 | COc1cc(Cl)cc(C(=O)Nc2ccc(Cl)cn2)c1NC(=O)c1ccc(C(=N)N(C)C)cc1 | 11.2%
